This is an account of results in the NIST ThermoML archive (doi:10.1021/je0302295).

± gives the expanded uncertainty stated by the source.

Data set [1] in a line: refractive index (Na D-line) (dimensionless). Particulars: 293.15 K; 101.33 kPa; Liquid; Standard Abbe refractometry.
For data set [2] the following is noted: 293.15 K, 101.33 kPa, Liquid.
Data set [3] in a line: activity coefficient (dimensionless); of the first substance listed, at infinite dilution; xn = mol fraction of the nth substance listed. To be noted: Liquid, Static method, x1 = 0.

Broadly, the refractive index is the speed of light in vacuum divided by its phase velocity in the sample. In general, mass density refers to mass per unit of volume. Take `CCCCO` [butan-1-ol]: the refractive index in data set [1] was found to be 1.3992 ± 0.0007. Moreover, in data set [2], the mass density is given as 809.68 ± 0.29 kg/m3.

With `CCCCO` [butan-1-ol] + CCCCCCC, the activity coefficient in data set [3] (303.15 K) stood at 31.3 ± 3; in data set [3] (313.15 K), 24.5 ± 1; in data set [3] (323.15 K), 19.3 ± 1; in data set [3] (333.15 K) it was 14.6 ± 0.8; in data set [3] (343.15 K), 11.6 ± 0.4.

Take `CCCCO` [butan-1-ol] + CCCCCCCC: the activity coefficient came out at 32.1 ± 1.6 in data set [3] (303.15 K); 23.9 ± 0.8 in data set [3] (313.15 K); 18.4 ± 0.4 in data set [3] (323.15 K); 14.5 ± 0.4 in data set [3] (333.15 K); 11.2 ± 0.8 in data set [3] (343.15 K).

As to `CCCCCCC` [heptane], in data set [1], the refractive index came out at 1.3876 ± 0.0007. For the same compound, the mass density in data set [2] (Vibrating tube method) worked out at 683.79 ± 0.21 kg/m3.

As for `CCCCCCCC` [octane], the refractive index in data set [1] amounted to 1.3973 ± 0.0007. In data set [2] (Vibrating tube method), the mass density turned out to be 702.76 ± 0.2 kg/m3.

For the compound `CCCO` [propan-1-ol], in data set [1], the refractive index is listed as 1.3855 ± 0.0007. In addition, the mass density in data set [2] turned out to be 803.55 ± 0.29 kg/m3.

In the case of `CCCO` [propan-1-ol] + CCCCCCC, the activity coefficient in data set [3] (303.15 K) worked out at 36.2 ± 1.1; in data set [3] (313.15 K) it was 27.2 ± 0.7; in data set [3] (323.15 K), 21.2 ± 1; in data set [3] (333.15 K), 15.8 ± 0.4; in data set [3] (343.15 K), 12.5 ± 0.2.

In the case of `CCCO` [propan-1-ol] + CCCCCCCC, the activity coefficient stood at 34.2 ± 1.8 in data set [3] (303.15 K); 26.5 ± 1.4 in data set [3] (313.15 K); 20.5 ± 0.5 in data set [3] (323.15 K); 16.2 ± 0.3 in data set [3] (333.15 K); 12.9 ± 0.2 in data set [3] (343.15 K).
